Results taken from patent publication US9340511B2, “Process for making isoquinoline compounds” (FIBROGEN, INC., priority 2012, dated 2016).

System: Hep3B cells
Assay: Cell-Based EPO Assay
Set-up: species or system human
Details: 30 μM compound in DMSO compared to DMSO only control, 72 hours, value minus vehicle control
Protocol: Cell-Based EPO Assay Hep3B cells (human hepatocellular carcinoma cells from ATCC, cat # HB-8064) were plated at 25,000 cells per well 96 well plates. The next day, the cells were washed once with DMEM (Cellgro, cat #10-013-CM)+0.5% fetal bovine serum (Cellgro, cat #35-010-CV) and incubated with various concentrations of compound or vehicle control (0.15% DMSO) in DMEM+0.5% fetal bovine serum for 72 hours. Cell free culture supernatants were generated by transfer to a conical bottom 96 well plate and centrifugation for 5 minutes at 2000 rpm. The supernatant was quantitated for EPO using a human EPO ELISA kit (R&D Systems, cat # DEP 00). The EPO values for the compounds reported herein (e.g., Table 1) are the measured value for cells plus compound minus the value for the vehicle control for the same cell preparation. The EPO values for the vehicle control for the cell preparations used in experiments reported herein varied from 0-12.5 mIU/ml.

Structure (SMILES)	Cell EPO* (mIU/ml)
Cc1nc(C(=O)NCC(=O)O)c(O)c2c(Oc3ccccc3)cccc12 [Compound 1f, 2-(4-hydroxy-1-methyl-5-phenoxyisoquinoline-3-carboxamido)acetic acid]	98.6 mIU/ml
Cc1nc(C(=O)NCC(=O)O)c(O)c2cc(Oc3ccccc3)ccc12 [Compound 2f, 2-(4-hydroxy-1-methyl-6-phenoxyisoquinoline-3-carboxamido)acetic acid]	78 mIU/ml
Cc1nc(C(=O)NCC(=O)O)c(O)c2cccc(Oc3ccccc3)c12 [Compound 4f, 2-(4-hydroxy-1-methyl-8-phenoxyisoquinoline-3-carboxamido)acetic acid]	52 mIU/ml
COc1ccc(Oc2ccc3c(O)c(C(=O)NCC(=O)O)nc(C)c3c2)cc1 [Compound 5f, 2-[4-hydroxy-1-methyl-7-(4-methoxy-phenoxy)-isoquinoline-3-carboxamido]acetic acid]	209 mIU/ml
COc1ccc(Oc2ccc3c(C)nc(C(=O)NCC(=O)O)c(O)c3c2)cc1 [Compound 6f, 2-[4-hydroxy-1-methyl-6-(4-methoxy-phenoxy)-isoquinoline-3-carboxamido]acetic acid]	191 mIU/ml
Cc1nc(C(=O)NCC(=O)O)c(O)c2ccc(Oc3cc(F)cc(F)c3)cc12 [Compound 7f, 2-[4-hydroxy-1-methyl-7-(3,5-difluoro-phenoxy)-isoquinoline-3-carboxamido]acetic acid]	225 mIU/ml
Cc1nc(C(=O)NCC(=O)O)c(O)c2cc(Oc3cc(F)cc(F)c3)ccc12 [Compound 8f, 2-[4-hydroxy-1-methyl-6-(3,5-difluoro-phenoxy)-isoquinoline-3-carboxamido]acetic acid]	105 mIU/ml
